Assay results published in patent US12708640B2, “Synergistic nutritional compositions for treating vestibular associated neurodegenerative diseases” (CELAGENEX RESEARCH (INDIA) PVT. LTD., priority 2021, dated 2026).

Columns and labels:
Type in all cases: in vivo, Albino Wistar rat
[1] = Rat body weight in the sodium arsanilate vestibular dysfunction study; settings: rats, group value; for Body Weight, End of the treatment: after 7 days daily treatment
Text: (§1) “Evaluation of test substance on sodium arsanilate induced vestibular dysfunction (Vertigo disorder) in wistar rats”.
(§2) • Test Species: Rat • Strain: Albino Wistar • Sex: Male/Female • Age: 6-8 Weeks • Body Weight: 180-200 g • Source: In house breed • Total No. of Animals: 42 Animals (7 groups of 6 animals each) • Feed: Normal chow diet (Purina lab diet 5L79 Rat and Mouse 18%) (PMI Nutrition International) Environmental Conditions:
(§3) All the animals were acclimatized for at least 5 days under controlled environmental condition. Total 42 animals were divided into seven groups consisting of 6 animals per group. Normal control (G1) group receiving vehicle, disease control (G2) group receiving sodium arsanilate injection only, standard group (G3) receiving reference standard (vertin) and treatment groups G4, G5, G6 & G7 were treated with the test substances. All the groups (except normal control group) were induced with sodium arsanilate via intratymphanic injection. All the treatment groups were administered daily for 7 consecutive days.
Individual body weights were recorded at receipt, on the day of randomization, on the first day of treatment before dosing and weekly once thereafter throughout the treatment period. The body weight changes for all the animals were calculated and reported along with the body weight data.

[2] = system: sodium arsanilate induced vestibular dysfunction (Vertigo disorder) in wistar rats; assay: Air righting reflex (air reflecting index); settings: for Air Righting Reflex (% of Rats that successfully righted themselves within 5 s), Average: group average of 6 animals
Text: as §1
(§4) Vestibular dysfunction was induced in rats by intratympanic injection of sodium arsanilate an ototoxic compound. Sodium arsanilate is an arsenic derivative and intratympanic injection result was vestibular nerve degeneration in brain stem with concomitant loss of labyrinthine righting and reduced postural support with exaggerated head dorsiflexion.
as §3
A sponge was spread on a flat surface and the animals were placed in a supine position in the air 50 cm away above the sponge, following which the animal was dropped horizontally.
Four-legged smooth landing on the ground was considered as positive (normal animal), whereas the body or other regions landing first was considered vestibular dysfunction animals. The positive landing rate (%) of each rat in each group was recorded.

[3] = Rat feed consumption in the sodium arsanilate vestibular dysfunction study; settings: rats, group value
Text: as §1, §2, §3
The feed consumption was calculated and reported on a daily basis throughout the study period.

[4] = system: sodium arsanilate induced vestibular dysfunction (Vertigo disorder) in wistar rats; assay: Contact righting reflex; settings: for Contact righting reflex (time), Average: group average of 6 animals
Text: as §1, §4, §3
The rats were placed in a syringe core tube in a supine position, following which the recovery time for position correction to be recorded. Normal rats turned over their body position in a few seconds.

[5] = system: sodium arsanilate induced vestibular dysfunction (Vertigo disorder) in wistar rats; assay: Open field test; settings: for Ambulation Score [the number of open-field sections entered by the rat], Average / Defecation [the number of fecal boli deposited in the open-field], Average / Grooming [the number of grooming bouts exhibited by the rat], Average / Rearing Responses [the number of times the animal raised both forefeet off the floor and extended its body], Average: group average of 6 animals; for % Improvement in Ambulation score wrt. G2 / % Improvement in Defecation wrt. G2 / % Improvement in Grooming wrt. G2 / % Improvement in Rearing Responses wrt. G2: open field test, wrt. disease control G2
Text: as §1, §4, §3
The open-field was circular, with a diameter of 90 cm, and enclosed by a wall 30 cm high. The floor and wall of the open-field was black and the floor was divided into 25 equal area sections by thin white lines. The floor was covered with a transparent plastic coating. The open-field apparatus was located inside a large wooden frame which surrounded on all sides by black curtains. The field was illuminated by two 60-W fluorescent lights located 100 cm above the floor.
At the start of each session the rats were placed in one of the peripheral sections of the open-field and the animal's behavior was monitored by an observer for 10 consecutive minutes. […] At the end of each session the rat was returned to its home cage and the floor of the open-field was cleaned and sponged over with a weak vinegar solution to remove any residual odors.

[6] = animal 1, end of 7-day treatment
[7] = animal 2, end of 7-day treatment
[8] = animal 3, end of 7-day treatment
[9] = animal 4, end of 7-day treatment
[10] = animal 5, end of 7-day treatment
[11] = animal 6, end of 7-day treatment
[12] = animal 1, recovery time for position correction
[13] = animal 2, recovery time for position correction
[14] = animal 3, recovery time for position correction
[15] = animal 4, recovery time for position correction
[16] = animal 5, recovery time for position correction
[17] = animal 6, recovery time for position correction

SMILES: O=c1ccn([C@@H]2O[C@H](COP(=O)(O)O)[C@@H](O)[C@H]2O)c(=O)[nH]1 [Group 5, Uridine monophosphate]
- Body Weight, End of the treatment [1]: 190.08 gm
- Body Weight, Initial [1]: 189.02 gm
- Air Righting Reflex (% successfully righted within 5 s) ([2]; animal 1): 40%
- Air Righting Reflex, Successful out of 5 [2, 6]: 2
- Air Righting Reflex (% successfully righted within 5 s) ([2]; animal 2): 40%
- Air Righting Reflex, Successful out of 5 [2, 7]: 2
- Air Righting Reflex (% successfully righted within 5 s) ([2]; animal 3): 20%
- Air Righting Reflex, Successful out of 5 [2, 8]: 1
- Air Righting Reflex (% successfully righted within 5 s) ([2]; animal 4): 40%
- Air Righting Reflex, Successful out of 5 [2, 9]: 2
- Air Righting Reflex (% successfully righted within 5 s) ([2]; animal 5): 20%
- Air Righting Reflex, Successful out of 5 [2, 10]: 1
- Air Righting Reflex (% successfully righted within 5 s) ([2]; animal 6): 40%
- Air Righting Reflex, Successful out of 5 [2, 11]: 2
- Air Righting Reflex (% of Rats that successfully righted themselves within 5 s), Average [2]: 33.33%
- Feed Consumption, 0 day [3]: 15.50 gm
- Feed Consumption, 7th day [3]: 16.67 gm
- Contact righting reflex (time) [4, 12]: 30 s
- Contact righting reflex (time) [4, 13]: 29 s
- Contact righting reflex (time) [4, 14]: 28 s
- Contact righting reflex (time) [4, 15]: 27 s
- Contact righting reflex (time) [4, 16]: 30 s
- Contact righting reflex (time) [4, 17]: 26 s
- Contact righting reflex (time), Average [4]: 28.33 s
- contact righting reflex, improvement (wrt. the Disease Control) [4]: ≤ 30%
- Ambulation Score [the number of open-field sections entered by the rat] ([5]; animal 1): 200
- Defecation [the number of fecal boli deposited in the open-field] ([5]; animal 1): 4
- Grooming [the number of grooming bouts exhibited by the rat] ([5]; animal 1): 2
- Rearing Responses [the number of times the animal raised both forefeet off the floor and extended its body] ([5]; animal 1): 3
- Ambulation Score [the number of open-field sections entered by the rat] ([5]; animal 2): 180
- Defecation [the number of fecal boli deposited in the open-field] ([5]; animal 2): 2
- Grooming [the number of grooming bouts exhibited by the rat] ([5]; animal 2): 4
- Rearing Responses [the number of times the animal raised both forefeet off the floor and extended its body] ([5]; animal 2): 4
- Ambulation Score [the number of open-field sections entered by the rat] ([5]; animal 3): 190
- Defecation [the number of fecal boli deposited in the open-field] ([5]; animal 3): 3
- Grooming [the number of grooming bouts exhibited by the rat] ([5]; animal 3): 3
- Rearing Responses [the number of times the animal raised both forefeet off the floor and extended its body] ([5]; animal 3): 3
- Ambulation Score [the number of open-field sections entered by the rat] ([5]; animal 4): 160
- Defecation [the number of fecal boli deposited in the open-field] ([5]; animal 4): 4
- Grooming [the number of grooming bouts exhibited by the rat] ([5]; animal 4): 3
- Rearing Responses [the number of times the animal raised both forefeet off the floor and extended its body] ([5]; animal 4): 4
- Ambulation Score [the number of open-field sections entered by the rat] ([5]; animal 5): 200
- Defecation [the number of fecal boli deposited in the open-field] ([5]; animal 5): 3
- Grooming [the number of grooming bouts exhibited by the rat] ([5]; animal 5): 4
- Rearing Responses [the number of times the animal raised both forefeet off the floor and extended its body] ([5]; animal 5): 3
- Ambulation Score [the number of open-field sections entered by the rat] ([5]; animal 6): 190
- Defecation [the number of fecal boli deposited in the open-field] ([5]; animal 6): 4
- Grooming [the number of grooming bouts exhibited by the rat] ([5]; animal 6): 4
- Rearing Responses [the number of times the animal raised both forefeet off the floor and extended its body] ([5]; animal 6): 4
- Ambulation Score [the number of open-field sections entered by the rat], Average [5]: 186.67
- Defecation [the number of fecal boli deposited in the open-field], Average [5]: 3.33
- Grooming [the number of grooming bouts exhibited by the rat], Average [5]: 3.33
- Rearing Responses [the number of times the animal raised both forefeet off the floor and extended its body], Average [5]: 3.50
- % Improvement in Ambulation score wrt. G2 [5]: 25.83%
- % Improvement in Defecation wrt. G2 [5]: 23.08%
- % Improvement in Grooming wrt. G2 [5]: 57.45%
- % Improvement in Rearing Responses wrt. G2 [5]: 32.81%

SMILES: CC(=O)NC(CC(C)C)C(=O)O (racemic) [Group 4, N-Acetyl-DL-leucine enantiomerically enriched (EE) with L-leucine]
- Body Weight, End of the treatment [1]: 190.77 gm
- Body Weight, Initial [1]: 189.15 gm
- Air Righting Reflex (% successfully righted within 5 s) ([2]; animal 1): 40%
- Air Righting Reflex, Successful out of 5 [2, 6]: 2
- Air Righting Reflex (% successfully righted within 5 s) ([2]; animal 2): 60%
- Air Righting Reflex, Successful out of 5 [2, 7]: 3
- Air Righting Reflex (% successfully righted within 5 s) ([2]; animal 3): 40%
- Air Righting Reflex, Successful out of 5 [2, 8]: 2
- Air Righting Reflex (% successfully righted within 5 s) ([2]; animal 4): 40%
- Air Righting Reflex, Successful out of 5 [2, 9]: 2
- Air Righting Reflex (% successfully righted within 5 s) ([2]; animal 5): 60%
- Air Righting Reflex, Successful out of 5 [2, 10]: 3
- Air Righting Reflex (% successfully righted within 5 s) ([2]; animal 6): 40%
- Air Righting Reflex, Successful out of 5 [2, 11]: 2
- Air Righting Reflex (% of Rats that successfully righted themselves within 5 s), Average [2]: 46.67%
- Feed Consumption, 0 day [3]: 16.00 gm
- Feed Consumption, 7th day [3]: 16.67 gm
- Contact righting reflex (time) [4, 12]: 27 s
- Contact righting reflex (time) [4, 13]: 26 s
- Contact righting reflex (time) [4, 14]: 25 s
- Contact righting reflex (time) [4, 15]: 28 s
- Contact righting reflex (time) [4, 16]: 27 s
- Contact righting reflex (time) [4, 17]: 28 s
- Contact righting reflex (time), Average [4]: 26.83 s
- contact righting reflex, improvement (wrt. the Disease Control) [4]: up to 34%
- Ambulation Score [the number of open-field sections entered by the rat] ([5]; animal 1): 210
- Defecation [the number of fecal boli deposited in the open-field] ([5]; animal 1): 2
- Grooming [the number of grooming bouts exhibited by the rat] ([5]; animal 1): 3
- Rearing Responses [the number of times the animal raised both forefeet off the floor and extended its body] ([5]; animal 1): 4
- Ambulation Score [the number of open-field sections entered by the rat] ([5]; animal 2): 200
- Defecation [the number of fecal boli deposited in the open-field] ([5]; animal 2): 3
- Grooming [the number of grooming bouts exhibited by the rat] ([5]; animal 2): 4
- Rearing Responses [the number of times the animal raised both forefeet off the floor and extended its body] ([5]; animal 2): 3
- Ambulation Score [the number of open-field sections entered by the rat] ([5]; animal 3): 220
- Defecation [the number of fecal boli deposited in the open-field] ([5]; animal 3): 4
- Grooming [the number of grooming bouts exhibited by the rat] ([5]; animal 3): 3
- Rearing Responses [the number of times the animal raised both forefeet off the floor and extended its body] ([5]; animal 3): 5
- Ambulation Score [the number of open-field sections entered by the rat] ([5]; animal 4): 220
- Defecation [the number of fecal boli deposited in the open-field] ([5]; animal 4): 2
- Grooming [the number of grooming bouts exhibited by the rat] ([5]; animal 4): 3
- Rearing Responses [the number of times the animal raised both forefeet off the floor and extended its body] ([5]; animal 4): 4
- Ambulation Score [the number of open-field sections entered by the rat] ([5]; animal 5): 210
- Defecation [the number of fecal boli deposited in the open-field] ([5]; animal 5): 3
- Grooming [the number of grooming bouts exhibited by the rat] ([5]; animal 5): 4
- Rearing Responses [the number of times the animal raised both forefeet off the floor and extended its body] ([5]; animal 5): 6
- Ambulation Score [the number of open-field sections entered by the rat] ([5]; animal 6): 220
- Defecation [the number of fecal boli deposited in the open-field] ([5]; animal 6): 4
- Grooming [the number of grooming bouts exhibited by the rat] ([5]; animal 6): 2
- Rearing Responses [the number of times the animal raised both forefeet off the floor and extended its body] ([5]; animal 6): 4
- Ambulation Score [the number of open-field sections entered by the rat], Average [5]: 213.33
- Defecation [the number of fecal boli deposited in the open-field], Average [5]: 3.00
- Grooming [the number of grooming bouts exhibited by the rat], Average [5]: 3.17
- Rearing Responses [the number of times the animal raised both forefeet off the floor and extended its body], Average [5]: 4.33
- % Improvement in Ambulation score wrt. G2 [5]: 15.23%
- % Improvement in Defecation wrt. G2 [5]: 30.77%
- % Improvement in Grooming wrt. G2 [5]: 59.57%
- % Improvement in Rearing Responses wrt. G2 [5]: 40.62%
